Assay results taken from patent US11744830B2, “Ameliorative agent for cytokine release syndrome and so on” (TORII PHARMACEUTICAL CO., LTD., priority 2018, dated 2023).
pIC50: −log10 of the molar value. Counter-ions that a name gives are not always drawn.

Legend:
[1] = tested on: IL-6 production from PBMCs; test: T-cell stimulation bead- and LPS stimulation-induced CRS toxicity evaluation system in PBMCs: IL-6; format: cell-based, human; conditions: CD3/CD28 + LPS; for pIC50: Homo sapiens, PBMC, 72 h, 3 days
Procedure: Cryopreserved PBMCs were quickly thawed in a 37° C. thermostat and added to a tube containing medium. After centrifugation (at room temperature at 300 g for 10 minutes) to remove the supernatant, the cells were suspended again in the medium (10 mL), followed by counting the number of viable cells. After centrifugation (at room temperature at 300 g for 10 minutes) to remove the supernatant, the medium was added to suspend the cells at 1×10^6 cells/mL. This cell suspension was seeded in a 96-well plate in a volume of 100 μl/well (1×10^5 cells/well) and allowed to stand in a CO2 incubator for 1 to 2 hours.
The cells were cultured in a CO2 incubator for 3 days to collect the culture supernatants.
(§1) The collected culture supernatants were quantified for IFN-γ and IL-6 using Human IFN-γ DuoSet ELISA and Human IL-6 DuoSet ELISA.

TNF-α production = test: CRS toxicity evaluation system using CAR-T cells: TNF-α; format: cell-based, human; conditions: for pIC50: Homo sapiens, Monocyte, CAR-T cells, target cells and monocytes, 72 hours
Procedure: (§2) The supernatants were collected at 72 hours after the initiation of culture, and various cytokines in each supernatant were measured by FACS multiplex assay.

[2] = tested on: MCP-1 production from CD14^+ cells; test: LPS stimulation-induced MCP-1 production in CD14^+ cells; format: cell-based; conditions: Homo sapiens, 72 h, LPS 3 ng/mL, 3 days
Procedure: (§3) Cryopreserved PBMCs were quickly thawed in a 37° C. thermostat and added to a tube containing medium. After centrifugation (at room temperature at 300 g for 10 minutes) to remove the supernatant, the cells were suspended again in the medium, followed by counting the number of viable cells. The cell suspension was centrifuged (at room temperature at 300 g for 10 minutes) to remove the supernatant, followed by addition of MACS Buffer to suspend the cells, to which Human CD14 MicroBeads were further added. After being allowed to stand on ice for 15 minutes, the cell suspension was diluted with MACS Buffer and centrifuged (at room temperature at 300 g for 10 minutes) to remove the supernatant.
(§4) MACS Buffer was added to the tube, and the cells were suspended and then applied to a separatory column to separate CD14^+ cells. The CD14^+ cell fraction was diluted with the medium and then centrifuged (at room temperature at 300 g for 10 minutes). The supernatant was removed and the cells were suspended in the medium (1 mL), followed by counting the number of viable cells. The cell suspension was adjusted with the medium to 2.4×10^5 or 3×10^5 cells/mL and seeded in a 96-well plate (2.4×10^4 cells/well), which was then allowed to stand in a CO2 incubator for 1 to 2 hours.
The collected culture supernatants were quantified for MCP-1 using Human CCL2/MCP-1 DuoSet ELISA.

IFN-γ production = test: CRS toxicity evaluation system using CAR-T cells: IFN-γ; format: cell-based; conditions: Homo sapiens, Monocyte, target cells and monocytes, 72 hours
Procedure: as §2

IL-8 production = test: CRS toxicity evaluation system using CAR-T cells: IL-8; format: cell-based, human; conditions: for pIC50: Homo sapiens, Monocyte, CAR-T cells, target cells and monocytes, 72 hours
Procedure: as §2

[3] = tested on: IL-1β production in CD14^+ cells; test: LPS stimulation-induced IL-1β production in CD14^+ cells; format: cell-based, human; conditions: for pIC50: Homo sapiens, 72 h, LPS 500 ng/mL, 3 days
Procedure: as §3, with “supernatant. MACS Buffer was added to the tube, and the cells were suspended and then applied to a separatory column to separate CD14^+ cells. The CD14^+ cell fraction was diluted with the medium and then centrifuged (at room temperature at 300 g for 10 minutes). The supernatant was removed and the cells were suspended in the medium (1 mL), followed by counting the number of viable cells. The cell suspension was adjusted with the medium to 2.4×10^5 or 3×10^5 cells/mL and seeded in a 96-well plate (2.4×10^4 cells/well), which was then allowed to stand in a CO2 incubator for 1 to 2 hours.” for “supernatant.”
The culture supernatants collected in 1.2.10 were quantified for IL-1β using Human IL-1β DuoSet ELISA.

[4] = tested on: OPN production from CD14^+ cells; test: LPS stimulation-induced OPN production in CD14^+ cells; format: cell-based, human; conditions: for pIC50: Homo sapiens, 72 h, LPS 500 ng/mL, 3 days
Procedure: as §3, with “supernatant. MACS Buffer was added to the tube, and the cells were suspended and then applied to a separatory column to separate CD14^+ cells. The CD14^+ cell fraction was diluted with the medium and then centrifuged (at room temperature at 300 g for 10 minutes). The supernatant was removed and the cells were suspended in the medium (1 mL), followed by counting the number of viable cells. The cell suspension was adjusted with the medium to 2.4×10^5 or 3×10^5 cells/mL and seeded in a 96-well plate (2.4×10^4 cells/well), which was then allowed to stand in a CO2 incubator for 1 to 2 hours.” for “supernatant.”
The collected culture supernatants were quantified for OPN using Human OPN DuoSet ELISA.

IL-1β production = test: CRS toxicity evaluation system using CAR-T cells: IL-1β; format: cell-based, human; conditions: for pIC50: Homo sapiens, Monocyte, CAR-T cells, target cells and monocytes, 72 hours
Procedure: as §2

[5] = tested on: TNF-α production from CD14^+ cells; test: LPS stimulation-induced TNF-α production in CD14^+ cells; format: cell-based, human; conditions: for pIC50: LPS 3 ng/mL, 3 days
Procedure: as §3, §4
The culture supernatants collected in 1.2.2 were quantified for TNF-α using Human TNF-α DuoSet ELISA.

[6] = tested on: IL-6 production in CD4^+ T cell-depleted PBMCs; test: T-cell stimulation bead- and LPS stimulation-induced CRS toxicity evaluation system in CD4^+ T cell-depleted PBMCs: IL-6; format: cell-based, human; conditions: for pIC50: Homo sapiens, 72 h, 3 days
Procedure: Cryopreserved human PBMCs were quickly thawed in a 37° C. thermostat and added to a tube containing medium. After centrifugation (at room temperature at 300 g for 10 minutes) to remove the supernatant, the cells were suspended again in the medium (10 mL), followed by counting the number of viable cells. The remainder of the cell suspension was centrifuged (at room temperature at 300 g for 10 minutes) to remove the supernatant, followed by addition of MACS Buffer in a volume of 80 μL and Human CD4 MicroBeads in a volume of 20 μL per 1×10^7 cells to suspend the cells. After being allowed to stand on ice for 15 minutes, the cell suspension was diluted with MACS Buffer (2 mL) and centrifuged (at room temperature at 300 g for 10 minutes) to remove the supernatant. MACS Buffer (500 μL) was added to the tube, and the cells were suspended and then applied to a separatory column to separate CD4^− cells (a pass-through fraction of CD4^+ cells). The CD4^− cell fraction was diluted to 15 mL with the medium and then centrifuged (at room temperature at 300 g for 10 minutes) to remove the supernatant, and the cells were then suspended again in the medium (1 mL), followed by counting the number of viable cells. The cell suspension adjusted with the medium to 1×10^6 cells/mL was seeded in a 96-well plate in a volume of 100 μl/well (1×10^5 cells/well) and allowed to stand in a CO2 incubator for 1 to 2 hours.
as §1

[7] = CRS toxicity evaluation system using CAR-T cells

pIC50 [5] | SMILES | Ratio (IL-6/IFN-γ) of IC50 values [1] | pIC50 [1] | pIC50 (TNF-α production) | pIC50 [2] | pIC50 (IFN-γ production) | pIC50 (IL-8 production) | pIC50 [3] | pIC50 [4] | pIC50 (IL-1β production) | pIC50 ([5]; Homo sapiens, 72 h) | suppressive effect on TNF-α production ([5]; LPS) | Ratio (IL-6/IFN-γ) of IC50 values ([6]; CD3/CD28 + LPS) | pIC50 ([6]; CD3/CD28 + LPS) | suppressive effect on TNF-α (TNF-α production; [7]) | suppressive effect on IL-8 production (IL-8 production; [7]) | suppressive effect on IL-1β production ([3]; LPS) | suppressive effect on OPN production ([4]; LPS) | suppressive effect on IL-1β (IL-1β production; [7]) | suppression of IL-6 production ([6]; T-cell stimulation beads and LPS)
– | CCOC(=O)[C@H](Cc1ccccc1)NC(=O)c1cc(Cl)c(OCCN2CCN(C)CC2)c(Cl)c1O [JTE-607, (−)-ethyl N-{3,5-dichloro-2-hydroxy-4-[2-(4-methylpiperazin-1-yl)ethoxy]benzoyl}-L-phenylalaninate dihydrochloride] | 0.81 | 7.39 | 6.38 | 7.67 | 6.22 | 6.81 | 8.46 | 6.88 | 6.45 | < 6.52 | suppressive effect in a manner dependent on its concentration added | 0.52 | 7.37 | – | – | – | – | – | –
7.38 | C[C@]12C=CC(=O)C=C1CC[C@@H]1[C@@H]2[C@@H](O)C[C@@]2(C)[C@H]1CC[C@]2(O)C(=O)CO [PSL, Prednisolone] | – | 5.45 | < 4.00 | 5.18 | 6.06 | < 4.00 | < 4.52 | < 4.52 | < 4.00 | 7.38 | – | – | < 4.52 | no suppressive effect | no suppressive effect | no suppressive effect | no suppressive effect | no suppressive effect | did not suppress
